Data on two molecules can be found in patent US20230090337A1, “PHARMACEUTICAL FORMULATIONS COMPRISING 6-CHLORO-7-(4-(4-CHLOROBENZYL)PIPERAZIN-1 -YL)-2-(1,3-DIMETHYL-1 HPYRAZOL-4-YL)-3H- IMIDAZO[4,5-B]PYRIDINE” (ELLIPSES PHARMA LTD, priority 2020, published 2023).

Like-named read-outs stand apart in the source and are kept apart here.

One data set concerns the target T1, FLT3 kinases (Homo sapiens, UniProt P36888).
T1 sequence (P36888 27-993): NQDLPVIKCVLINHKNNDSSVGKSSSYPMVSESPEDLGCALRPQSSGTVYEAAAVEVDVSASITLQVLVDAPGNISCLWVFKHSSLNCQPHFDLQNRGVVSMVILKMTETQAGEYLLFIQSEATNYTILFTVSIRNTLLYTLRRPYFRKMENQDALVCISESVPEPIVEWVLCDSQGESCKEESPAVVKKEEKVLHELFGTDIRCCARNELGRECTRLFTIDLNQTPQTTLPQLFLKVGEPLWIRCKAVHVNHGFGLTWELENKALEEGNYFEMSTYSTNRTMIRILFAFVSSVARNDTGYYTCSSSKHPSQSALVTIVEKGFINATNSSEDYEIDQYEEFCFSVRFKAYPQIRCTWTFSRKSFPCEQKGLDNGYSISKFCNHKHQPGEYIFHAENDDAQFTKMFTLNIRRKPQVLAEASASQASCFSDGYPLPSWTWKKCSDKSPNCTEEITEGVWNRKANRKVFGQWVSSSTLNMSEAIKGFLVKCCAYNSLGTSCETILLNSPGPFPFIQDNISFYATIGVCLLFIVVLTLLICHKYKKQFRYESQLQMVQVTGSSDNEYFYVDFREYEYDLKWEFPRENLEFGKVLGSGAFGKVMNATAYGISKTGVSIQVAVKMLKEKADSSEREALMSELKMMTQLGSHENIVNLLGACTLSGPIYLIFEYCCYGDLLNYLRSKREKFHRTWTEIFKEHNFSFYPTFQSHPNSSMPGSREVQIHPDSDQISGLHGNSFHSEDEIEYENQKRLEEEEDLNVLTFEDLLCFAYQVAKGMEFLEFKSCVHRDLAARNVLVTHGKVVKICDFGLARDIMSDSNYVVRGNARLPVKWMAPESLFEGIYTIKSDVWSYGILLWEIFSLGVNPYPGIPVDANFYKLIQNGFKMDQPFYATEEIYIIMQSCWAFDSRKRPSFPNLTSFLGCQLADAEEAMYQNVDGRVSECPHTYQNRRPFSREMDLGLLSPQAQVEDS
Particulars: cited from earlier work.

The next data set concerns the target Aurora B (Homo sapiens, UniProt Q96GD4). Particulars: cited from earlier work.
The next data set has as its target T2, Aurora A (Homo sapiens, UniProt O14965).
T2 sequence (O14965 1-403): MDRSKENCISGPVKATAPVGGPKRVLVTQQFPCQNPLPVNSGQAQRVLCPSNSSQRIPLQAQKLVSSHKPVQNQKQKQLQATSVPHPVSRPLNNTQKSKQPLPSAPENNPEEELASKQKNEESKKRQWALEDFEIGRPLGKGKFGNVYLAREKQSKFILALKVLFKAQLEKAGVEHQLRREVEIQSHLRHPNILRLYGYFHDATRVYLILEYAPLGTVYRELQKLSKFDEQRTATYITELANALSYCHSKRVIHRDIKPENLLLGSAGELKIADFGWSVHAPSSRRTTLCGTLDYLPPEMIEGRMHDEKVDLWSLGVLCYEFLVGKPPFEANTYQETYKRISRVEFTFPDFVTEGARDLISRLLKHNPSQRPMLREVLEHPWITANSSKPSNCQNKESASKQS
Particulars: cited from earlier work.

A short description of data set [1]: Excipient solubilising ability (20% w/v aqueous excipient solutions, DMSO spike, observed for precipitation). The note with it: for solubility: aqueous with cosolvent or surfactant or cyclodextrin, kinetic from dmso stock. Type of data set: physicochemical. Here is the method: Promising non-ionic surfactants were further tested. Each was prepared as a 20% w/v aqueous solution.
The excipients tested were (HLB): Cremophor EL (12-14); Cremophor RH 40 (14-16); Labrasol ALF; Solutol HS15 (˜16); Poloxamer P124 (12-18); TPGS (˜13); and Gelucire 44/14 (˜11).
Initially, the concentrated DMSO solution was prepared at 30 mg/mL to give a starting concentration of 3 mg/mL of the compound of Formula (1) in the aqueous vehicle, and the concentration was reduced until a semi-solid excipient was identified which maintained a clear solution of the compound. No excipients solubilised the compound at concentrations >1.5 mg/mL in this experiment, but TPGS unexpectedly performed best—solubilising the compound at a concentration of 1.5 mg/mL in the aqueous vehicle (e.g. 100 μL portion of a 15 mg/mL solution of the compound in DMSO was added to each excipient solution to achieve the final concentration of 1.5 mg/mL). In TPGS the solution remained clear for up to 5 hours.

In a further data set the target is T3, Aurora C (Homo sapiens, UniProt Q9UQB9).
T3 sequence (Q9UQB9 1-309): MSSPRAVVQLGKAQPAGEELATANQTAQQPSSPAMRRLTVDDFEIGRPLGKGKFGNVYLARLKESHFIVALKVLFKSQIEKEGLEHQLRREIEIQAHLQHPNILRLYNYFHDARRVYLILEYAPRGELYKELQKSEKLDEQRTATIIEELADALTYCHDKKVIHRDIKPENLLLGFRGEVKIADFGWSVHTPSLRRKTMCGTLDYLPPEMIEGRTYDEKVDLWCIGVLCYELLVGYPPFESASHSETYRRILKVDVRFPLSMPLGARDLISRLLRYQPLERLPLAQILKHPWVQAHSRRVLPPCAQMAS
The note with it: cited from earlier work.

The next data set relates to cytochrome P450. Particulars: cited from earlier work.
In a further data set the target is hERG (Homo sapiens, UniProt Q12809). Particulars: cited from earlier work.
hERG, sequence (Q12809 whole entry): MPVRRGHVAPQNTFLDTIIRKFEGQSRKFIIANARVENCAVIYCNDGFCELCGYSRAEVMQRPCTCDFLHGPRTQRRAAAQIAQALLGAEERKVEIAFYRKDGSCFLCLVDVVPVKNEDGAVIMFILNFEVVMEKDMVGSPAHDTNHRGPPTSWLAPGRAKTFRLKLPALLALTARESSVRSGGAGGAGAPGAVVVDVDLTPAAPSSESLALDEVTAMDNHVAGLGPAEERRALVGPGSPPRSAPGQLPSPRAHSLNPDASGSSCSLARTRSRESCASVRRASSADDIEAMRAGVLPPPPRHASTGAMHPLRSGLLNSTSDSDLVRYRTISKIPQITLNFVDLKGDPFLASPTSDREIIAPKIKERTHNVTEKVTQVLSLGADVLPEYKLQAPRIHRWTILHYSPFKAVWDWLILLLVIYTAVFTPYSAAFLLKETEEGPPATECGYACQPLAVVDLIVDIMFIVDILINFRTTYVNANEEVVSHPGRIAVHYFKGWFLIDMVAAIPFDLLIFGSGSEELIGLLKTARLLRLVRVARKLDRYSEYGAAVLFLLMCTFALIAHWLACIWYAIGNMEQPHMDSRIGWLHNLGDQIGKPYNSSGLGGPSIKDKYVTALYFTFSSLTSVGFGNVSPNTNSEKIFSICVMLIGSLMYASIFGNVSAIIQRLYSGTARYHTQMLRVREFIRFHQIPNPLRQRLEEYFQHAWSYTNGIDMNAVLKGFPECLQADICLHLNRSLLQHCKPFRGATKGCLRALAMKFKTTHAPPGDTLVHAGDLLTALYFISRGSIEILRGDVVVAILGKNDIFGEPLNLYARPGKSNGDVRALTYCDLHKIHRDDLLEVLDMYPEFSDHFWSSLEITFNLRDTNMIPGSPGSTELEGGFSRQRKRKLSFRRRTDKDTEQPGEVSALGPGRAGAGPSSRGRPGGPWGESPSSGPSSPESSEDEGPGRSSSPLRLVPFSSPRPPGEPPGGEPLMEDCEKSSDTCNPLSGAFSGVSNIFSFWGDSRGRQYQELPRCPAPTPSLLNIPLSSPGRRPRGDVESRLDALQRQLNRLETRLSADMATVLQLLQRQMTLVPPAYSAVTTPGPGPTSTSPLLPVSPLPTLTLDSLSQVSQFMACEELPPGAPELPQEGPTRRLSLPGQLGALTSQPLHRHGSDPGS
Data set [2] in a line: Stability / hygroscopicity of salts. The class given is physicochemical. The note with it: e.g. due to lower hygroscopicity.
Data set [3] in a line: Aqueous solubility of salt versus free base. The class given is physicochemical.
Data set [4] is described as follows: Solubility of the compound of Formula (1) in non-ionic surfactants. The class given is physicochemical. Particulars: thermodynamic from solid. Here is the method: Approximately 3 mg of the compound of Formula (1) (monofumarate) was weighed out into clean HLPC vials. Various non-ionic surfactants were added in 200 or 300 μL portions up to 1 ml in total. After each addition, the sample was with vortexed (2×30 seconds) sonicated for 6 minutes, and once 1 ml total had been added the sample was kept in an oven at 45° C. for 40 minutes before being cooled to RT to aid dissolution. Observations are provided below:
Those excipients that have a melting point above ambient temperature were heated to above their melting point (e.g. 50° C.-70° C.) and observations were made in the liquid phase.

Aurora B, sequence (Q96GD4 whole entry): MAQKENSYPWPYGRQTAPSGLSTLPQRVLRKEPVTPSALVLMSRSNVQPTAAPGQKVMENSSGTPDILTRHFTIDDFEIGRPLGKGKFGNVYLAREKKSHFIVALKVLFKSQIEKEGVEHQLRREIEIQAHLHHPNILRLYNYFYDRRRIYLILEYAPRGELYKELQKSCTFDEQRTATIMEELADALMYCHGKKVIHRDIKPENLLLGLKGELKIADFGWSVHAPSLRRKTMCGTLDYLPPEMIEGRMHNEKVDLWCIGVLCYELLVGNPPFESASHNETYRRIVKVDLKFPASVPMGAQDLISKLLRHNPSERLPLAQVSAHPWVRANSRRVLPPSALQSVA

With `Cc1nn(C)cc1-c1nc2c(N3CCN(Cc4ccc(Cl)cc4)CC3)c(Cl)cnc2[nH]1` [compound of Formula (1), 6-chloro-7-(4-(4-chlorobenzyl)piperazin-1-yl)-2-(1,3-dimethyl-1H-pyrazol-4-yl)-3H-imidazo[4,5-b]pyridine], the “activity against FLT3 kinases” value on FLT3 kinases is given as “high activity”. Besides, the “activity against Aurora B” value at Aurora B is given as “high activity”. The “activity against Aurora A” value on Aurora A is “high activity”. Moreover, the “time the suspension remained stable” value in [1] (20% w/v aqueous Gelucire 44/14, 1.5 mg/mL) was “at least 10 days”; in data set [1] (20% w/v aqueous Poloxamer P124, 1.5 mg/mL), “at least 10 days”. The solubility in data set [1] (20% w/v aqueous TPGS solution, 20% w/v aqueous TPGS, 100 μL DMSO solution added to 900 μL excipient solution, read-out: concentration solubilised (clear solution) in the aqueous vehicle) was 1500 µg/mL; in data set [1] (20% w/v aqueous Cremophor EL, Cremophor RH 40, Labrasol ALF, Solutol HS15, Poloxamer P124, TPGS, Gelucire 44/14, read-out: concentration solubilised by any tested excipient), ≤ 1500 µg/mL. Also, the “time the solution remained clear” value in [1] (20% w/v aqueous TPGS, 1.5 mg/mL) is given as “up to 5 hours”. Moreover, on Aurora C, the “activity against Aurora C” value is “high activity”. The “interaction with cytochrome P450 activity” value with cytochrome P450 is “minimal interaction”. Further, the “interaction with hERG” value on hERG is recorded as “minimal interaction”.

Take `Cc1nn(C)cc1-c1nc2c(N3CCN(Cc4ccc(Cl)cc4)CC3)c(Cl)cnc2[nH]1.O=C(O)/C=C/C(=O)O` [compound of Formula (1) fumarate, 6-chloro-7-(4-(4-chlorobenzyl)piperazin-1-yl)-2-(1,3-dimethyl-1H-pyrazol-4-yl)-3H-imidazo[4,5-b]pyridine fumarate]: the “stability compared with other pharmaceutically acceptable salts” value in [2] is given as “greater stability”. In addition, the “aqueous solubility compared with free base” value in [3] is on record as “higher aqueous solubility than the free base”. Further, the solubility at 40 min is < 4600 µg/mL in [4] (Capryol 90 (non-ionic surfactant), oil or lipid, in Capryol 90 (fatty acid ester)); < 3600 µg/mL in data set [4] (Capryol PC MG (non-ionic surfactant), oil or lipid, in Capryol PC MG (fatty acid ester)); < 4900 µg/mL in data set [4] (Cremophor EL (non-ionic surfactant), organic solvent or mixture, in Cremophor EL (glycerol derivative)); < 4400 µg/mL in data set [4] (Cremophor RH40 (non-ionic surfactant), organic solvent or mixture, in Cremophor RH40 (glycerol derivative)); < 3500 µg/mL in data set [4] (Gelucire 44/14 (non-ionic surfactant), organic solvent or mixture, in Gelucire 44/14 (fatty acid ester/glycerol derivative)); < 2700 µg/mL in data set [4] (Gelucire 50/13 (non-ionic surfactant), organic solvent or mixture, in Gelucire 50/13 (fatty acid ester/glycerol derivative)). Further, the solubility at 40 min in data set [4] (Kollisolv P124 (non-ionic surfactant), organic solvent or mixture, in Kollisolv P124 (co-polymer)) is < 4500 µg/mL; in data set [4] (Labrafac PC (non-ionic surfactant), oil or lipid, in Labrafac PC (fatty acid ester)), < 2100 µg/mL; in [4] (Labrafil 1944 (non-ionic surfactant), oil or lipid, in Labrafil 1944 (glycerol derivative)), < 5000 µg/mL; in data set [4] (Labrafil 2125 (non-ionic surfactant), oil or lipid, in Labrafil 2125 (glycerol derivative)) it was < 5500 µg/mL; in data set [4] (Labrasol ALF (non-ionic surfactant), organic solvent or mixture, in Labrasol ALF (glycerol derivative)) it was < 3500 µg/mL; in data set [4] (Miglyol 812N (non-ionic surfactant), oil or lipid, in Miglyol 812N (glycerol derivative)), < 3200 µg/mL. Besides, the solubility at 40 min was < 4300 µg/mL in data set [4] (Softisan 378 (non-ionic surfactant), oil or lipid, in Softisan 378 (glycerol derivative)); < 3700 µg/mL in data set [4] (Tween 80 (non-ionic surfactant), organic solvent or mixture, in Tween 80 (sorbitan derivative), ~3 mg monofumarate, up to 1 ml, vortexed, sonicated, 45° C. 40 min); < 3200 µg/mL in data set [4] (Vitamin E TPGS (non-ionic surfactant), organic solvent or mixture, in Vitamin E TPGS (vitamin E derivative)).
